In the kinase profiling compilation of Christmann-Franck et al. (2016):

Columns and labels:
Assay in all cases: radiometric filter-binding kinase assay
DYRK3 (human) = DYRK3 (human) (UniProt O43781)
RPS6KA3 KD1 KD2 (human) = RPS6KA3 KD1 KD2 (human) (UniProt P51812); conditions: compound 0.1 µM
MINK1 (human) = MINK1 (human) (UniProt Q8N4C8)
CHEK2 (human) = CHEK2 (human) (UniProt O96017)
EPHB1 (human) = EPHB1 (human) (UniProt P54762)
MARK2 (human) = MARK2 (human) (UniProt Q7KZI7)
[1] = system: PAK2 (human), Q13177 [T402E]
MST4 (human) = MST4 (human) (UniProt Q9P289)
Chain of MST4 (human) (Q9P289 whole entry, looked up): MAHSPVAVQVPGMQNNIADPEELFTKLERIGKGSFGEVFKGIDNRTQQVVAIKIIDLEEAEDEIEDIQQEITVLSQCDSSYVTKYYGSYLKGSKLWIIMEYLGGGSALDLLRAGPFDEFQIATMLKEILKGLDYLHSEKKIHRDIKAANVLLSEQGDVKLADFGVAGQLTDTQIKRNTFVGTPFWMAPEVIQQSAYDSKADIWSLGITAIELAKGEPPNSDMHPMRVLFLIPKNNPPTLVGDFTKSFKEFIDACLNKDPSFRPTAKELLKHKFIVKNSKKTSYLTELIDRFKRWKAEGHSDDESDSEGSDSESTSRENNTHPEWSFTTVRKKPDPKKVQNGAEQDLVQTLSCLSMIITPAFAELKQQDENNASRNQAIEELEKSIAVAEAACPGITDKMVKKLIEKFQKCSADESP

ROCK2 (rat) = conditions: accession and sequence are those of the human protein
MAP3K11 (human) = MAP3K11 (human) (UniProt Q16584)
GCK (human) = GCK (human) (UniProt Q12851)
TBK1 (human) = TBK1 (human) (UniProt Q9UHD2)
Chain of TBK1 (human) (Q9UHD2 whole entry, looked up): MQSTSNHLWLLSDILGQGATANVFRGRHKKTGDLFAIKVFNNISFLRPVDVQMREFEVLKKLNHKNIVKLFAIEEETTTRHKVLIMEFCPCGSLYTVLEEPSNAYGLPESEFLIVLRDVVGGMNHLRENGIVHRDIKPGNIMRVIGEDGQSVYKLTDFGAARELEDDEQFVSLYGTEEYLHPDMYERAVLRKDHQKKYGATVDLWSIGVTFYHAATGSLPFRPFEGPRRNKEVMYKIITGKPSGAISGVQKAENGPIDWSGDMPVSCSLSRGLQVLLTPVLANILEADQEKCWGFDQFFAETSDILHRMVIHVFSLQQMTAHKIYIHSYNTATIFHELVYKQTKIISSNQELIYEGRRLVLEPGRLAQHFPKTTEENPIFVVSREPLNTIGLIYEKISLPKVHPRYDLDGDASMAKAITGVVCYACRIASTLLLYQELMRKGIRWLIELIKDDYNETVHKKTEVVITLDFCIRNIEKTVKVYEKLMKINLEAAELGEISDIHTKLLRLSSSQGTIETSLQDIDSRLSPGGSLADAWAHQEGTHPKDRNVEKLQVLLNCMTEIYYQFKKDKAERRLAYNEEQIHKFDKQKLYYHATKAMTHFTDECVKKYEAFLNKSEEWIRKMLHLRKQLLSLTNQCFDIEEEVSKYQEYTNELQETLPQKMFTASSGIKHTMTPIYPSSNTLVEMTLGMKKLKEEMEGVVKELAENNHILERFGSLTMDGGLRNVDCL

TAOK1 (human) = TAOK1 (human) (UniProt Q7L7X3)
PAK6 (human) = PAK6 (human) (UniProt Q9NQU5)
EPHA2 (human) = EPHA2 (human) (UniProt P29317)
EPHB3 (human) = EPHB3 (human) (UniProt P54753)
MAP3K7 TAB1 (human) = MAP3K7 TAB1 (human) (UniProt Q15750+O43318)
Chain of MAP3K7 TAB1 (human) (O43318 whole entry, looked up): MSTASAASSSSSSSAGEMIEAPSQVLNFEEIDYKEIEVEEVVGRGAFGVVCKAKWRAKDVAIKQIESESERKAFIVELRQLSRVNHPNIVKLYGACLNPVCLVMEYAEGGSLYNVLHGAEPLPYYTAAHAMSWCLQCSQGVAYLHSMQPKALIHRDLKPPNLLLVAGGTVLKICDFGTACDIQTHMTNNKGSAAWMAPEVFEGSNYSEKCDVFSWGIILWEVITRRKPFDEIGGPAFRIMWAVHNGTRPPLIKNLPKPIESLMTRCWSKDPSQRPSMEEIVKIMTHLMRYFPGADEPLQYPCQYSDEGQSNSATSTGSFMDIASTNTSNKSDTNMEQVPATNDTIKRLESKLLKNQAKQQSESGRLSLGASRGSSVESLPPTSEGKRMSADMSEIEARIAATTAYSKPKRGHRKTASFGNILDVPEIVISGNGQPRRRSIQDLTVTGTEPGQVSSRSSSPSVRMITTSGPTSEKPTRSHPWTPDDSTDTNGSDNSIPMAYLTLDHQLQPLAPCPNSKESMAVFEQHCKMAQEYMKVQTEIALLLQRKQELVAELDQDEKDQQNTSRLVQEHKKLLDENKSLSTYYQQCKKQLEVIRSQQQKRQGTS
Chain of MAP3K7 TAB1 (human) (Q15750 whole entry, looked up): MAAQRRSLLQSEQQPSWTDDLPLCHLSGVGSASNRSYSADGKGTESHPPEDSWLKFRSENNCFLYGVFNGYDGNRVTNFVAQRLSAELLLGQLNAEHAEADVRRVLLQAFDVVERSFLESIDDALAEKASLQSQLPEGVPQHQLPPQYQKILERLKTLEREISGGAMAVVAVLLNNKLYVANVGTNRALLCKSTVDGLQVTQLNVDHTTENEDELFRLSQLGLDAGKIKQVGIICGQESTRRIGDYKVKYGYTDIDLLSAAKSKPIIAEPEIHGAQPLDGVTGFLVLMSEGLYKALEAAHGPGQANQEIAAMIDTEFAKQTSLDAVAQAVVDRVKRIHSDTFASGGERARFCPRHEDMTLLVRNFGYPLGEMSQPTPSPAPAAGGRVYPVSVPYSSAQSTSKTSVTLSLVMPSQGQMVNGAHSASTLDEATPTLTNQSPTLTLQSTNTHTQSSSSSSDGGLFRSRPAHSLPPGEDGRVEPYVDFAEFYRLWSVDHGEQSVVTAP

IKBKB (human) = IKBKB (human) (UniProt O14920)
AURKB (human) = AURKB (human) (UniProt Q96GD4)
Chain of AURKB (human) (Q96GD4 whole entry, looked up): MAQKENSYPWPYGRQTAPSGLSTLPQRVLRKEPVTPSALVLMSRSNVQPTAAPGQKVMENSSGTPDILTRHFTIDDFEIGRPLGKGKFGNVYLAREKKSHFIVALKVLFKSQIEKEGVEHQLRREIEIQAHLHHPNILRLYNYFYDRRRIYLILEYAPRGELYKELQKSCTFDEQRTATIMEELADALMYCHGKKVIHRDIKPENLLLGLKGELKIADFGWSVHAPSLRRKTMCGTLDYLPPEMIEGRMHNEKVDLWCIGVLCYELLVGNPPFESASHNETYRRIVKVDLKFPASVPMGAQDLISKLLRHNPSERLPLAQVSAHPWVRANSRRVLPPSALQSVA

TTK (human) = TTK (human) (UniProt P33981)
CDK2 CCNA2 (human) = CDK2 CCNA2 (human) (UniProt P20248+P24941)
LCK (mouse) = conditions: accession and sequence are those of the human protein
MAPK8 (human) = MAPK8 (human) (UniProt P45983)
Chain of MAPK8 (human) (P45983 whole entry, looked up): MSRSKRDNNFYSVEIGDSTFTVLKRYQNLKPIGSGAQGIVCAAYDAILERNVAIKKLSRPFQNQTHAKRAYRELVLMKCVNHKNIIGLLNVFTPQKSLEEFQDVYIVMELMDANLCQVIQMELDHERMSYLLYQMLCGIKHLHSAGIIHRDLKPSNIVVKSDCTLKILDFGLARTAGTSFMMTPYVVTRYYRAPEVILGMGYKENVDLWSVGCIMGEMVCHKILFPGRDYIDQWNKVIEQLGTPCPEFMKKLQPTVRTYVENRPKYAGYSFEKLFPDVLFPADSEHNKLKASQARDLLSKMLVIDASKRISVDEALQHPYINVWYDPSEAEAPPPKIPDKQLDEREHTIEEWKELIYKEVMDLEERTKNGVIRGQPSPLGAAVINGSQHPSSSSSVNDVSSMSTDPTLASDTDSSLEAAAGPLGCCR

[2] = system: AKT1 (human), P31749 [S473D]
EPHB2 (human) = EPHB2 (human) (UniProt P29323)
MAP2K1 (human) = MAP2K1 (human) (UniProt Q02750)
PKN2 (human) = PKN2 (human) (UniProt Q16513)
MAPK10 (human) = MAPK10 (human) (UniProt P53779)
EPHA4 (human) = EPHA4 (human) (UniProt P54764); conditions: compound 1.0 µM
CSK (human) = CSK (human) (UniProt P41240)
CaMK1 (human) = CaMK1 (human) (UniProt Q14012)
CHEK1 (human) = CHEK1 (human) (UniProt O14757)
NUAK1 (human) = NUAK1 (human) (UniProt O60285)
MYLK (human) = MYLK (human) (UniProt Q15746)
SRC (human) = SRC (human) (UniProt P12931)
Chain of SRC (human) (P12931 whole entry, looked up): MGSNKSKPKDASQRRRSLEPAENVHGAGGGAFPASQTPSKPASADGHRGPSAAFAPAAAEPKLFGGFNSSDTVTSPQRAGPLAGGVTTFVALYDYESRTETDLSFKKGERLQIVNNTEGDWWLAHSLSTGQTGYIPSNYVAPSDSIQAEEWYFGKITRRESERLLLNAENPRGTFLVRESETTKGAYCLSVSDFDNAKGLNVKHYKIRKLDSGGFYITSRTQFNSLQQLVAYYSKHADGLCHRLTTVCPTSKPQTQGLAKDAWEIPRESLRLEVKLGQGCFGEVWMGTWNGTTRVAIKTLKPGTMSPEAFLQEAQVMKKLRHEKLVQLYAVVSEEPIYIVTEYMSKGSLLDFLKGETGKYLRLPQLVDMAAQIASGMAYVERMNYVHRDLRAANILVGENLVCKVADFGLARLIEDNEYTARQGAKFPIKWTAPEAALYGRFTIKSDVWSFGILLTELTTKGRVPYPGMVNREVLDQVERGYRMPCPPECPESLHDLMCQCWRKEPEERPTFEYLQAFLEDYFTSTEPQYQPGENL

PAK4 (human) = PAK4 (human) (UniProt O96013)

Chain of MINK1 (human) (Q8N4C8 whole entry, looked up): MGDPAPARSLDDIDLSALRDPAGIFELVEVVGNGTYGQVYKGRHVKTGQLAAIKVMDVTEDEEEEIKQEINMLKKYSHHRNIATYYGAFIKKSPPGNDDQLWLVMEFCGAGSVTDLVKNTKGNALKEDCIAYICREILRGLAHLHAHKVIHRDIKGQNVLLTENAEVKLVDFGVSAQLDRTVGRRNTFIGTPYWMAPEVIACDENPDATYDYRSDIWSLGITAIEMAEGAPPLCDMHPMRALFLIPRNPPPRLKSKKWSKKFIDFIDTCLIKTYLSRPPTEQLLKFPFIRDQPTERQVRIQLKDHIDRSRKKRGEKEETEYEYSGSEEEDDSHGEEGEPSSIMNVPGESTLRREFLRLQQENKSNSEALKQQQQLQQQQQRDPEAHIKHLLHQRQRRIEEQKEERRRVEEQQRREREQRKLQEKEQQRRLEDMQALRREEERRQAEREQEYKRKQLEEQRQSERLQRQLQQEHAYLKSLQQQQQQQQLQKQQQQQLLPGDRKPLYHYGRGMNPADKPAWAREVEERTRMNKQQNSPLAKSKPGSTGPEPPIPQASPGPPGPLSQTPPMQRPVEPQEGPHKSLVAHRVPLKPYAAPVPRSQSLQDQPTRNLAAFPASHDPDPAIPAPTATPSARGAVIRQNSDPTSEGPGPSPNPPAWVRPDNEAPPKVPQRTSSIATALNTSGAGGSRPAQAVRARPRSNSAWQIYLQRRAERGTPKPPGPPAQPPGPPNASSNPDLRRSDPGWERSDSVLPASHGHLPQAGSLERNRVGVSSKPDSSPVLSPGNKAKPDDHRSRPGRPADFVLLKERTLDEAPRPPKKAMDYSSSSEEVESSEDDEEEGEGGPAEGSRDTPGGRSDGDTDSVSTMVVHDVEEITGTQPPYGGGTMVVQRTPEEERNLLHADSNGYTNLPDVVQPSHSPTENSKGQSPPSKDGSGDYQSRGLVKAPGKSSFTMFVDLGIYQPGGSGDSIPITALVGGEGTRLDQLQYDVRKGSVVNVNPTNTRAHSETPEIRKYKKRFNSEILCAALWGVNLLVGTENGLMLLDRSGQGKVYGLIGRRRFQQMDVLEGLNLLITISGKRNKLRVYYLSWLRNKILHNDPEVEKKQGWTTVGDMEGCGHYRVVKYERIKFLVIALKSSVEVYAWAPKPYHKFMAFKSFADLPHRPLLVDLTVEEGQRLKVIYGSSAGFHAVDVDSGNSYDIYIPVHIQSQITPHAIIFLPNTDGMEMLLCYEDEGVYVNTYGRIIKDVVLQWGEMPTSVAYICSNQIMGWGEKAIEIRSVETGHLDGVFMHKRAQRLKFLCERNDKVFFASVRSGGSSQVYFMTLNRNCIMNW

- residual activity (DYRK3 (human); compound 0.1 µM): 107%
- residual activity (DYRK3 (human); compound 1.0 µM): 93%
- residual activity (DYRK3 (human); compound 10.0 µM): 72%
- residual activity (RPS6KA3 KD1 KD2 (human)): 94%
- residual activity (MINK1 (human); compound 0.1 µM): 107%
- residual activity (MINK1 (human); compound 1.0 µM): 96%
- residual activity (MINK1 (human); compound 10.0 µM): 72%
- residual activity (CHEK2 (human); compound 0.1 µM): 94%
- residual activity (CHEK2 (human); compound 1.0 µM): 89%
- residual activity (CHEK2 (human); compound 10.0 µM): 69%
- residual activity (EPHB1 (human); compound 0.1 µM): 92%
- residual activity (EPHB1 (human); compound 1.0 µM): 99%
- residual activity (EPHB1 (human); compound 10.0 µM): 82%
- residual activity (MARK2 (human); compound 0.1 µM): 99%
- residual activity (MARK2 (human); compound 1.0 µM): 92%
- residual activity (MARK2 (human); compound 10.0 µM): 63%
- residual activity ([1]; compound 0.1 µM): 99%
- residual activity ([1]; compound 1.0 µM): 93%
- residual activity ([1]; compound 10.0 µM): 90%
- residual activity (MST4 (human); compound 0.1 µM): 91%
- residual activity (MST4 (human); compound 1.0 µM): 81%
- residual activity (MST4 (human); compound 10.0 µM): 91%
- residual activity (ROCK2 (rat); compound 0.1 µM): 31%
- residual activity (ROCK2 (rat); compound 1.0 µM): 23%
- residual activity (ROCK2 (rat); compound 10.0 µM): 17%
- residual activity (MAP3K11 (human); compound 1.0 µM): 111%
- residual activity (MAP3K11 (human); compound 10.0 µM): 89%
- residual activity (GCK (human); compound 0.1 µM): 91%
- residual activity (GCK (human); compound 1.0 µM): 94%
- residual activity (GCK (human); compound 10.0 µM): 71%
- residual activity (TBK1 (human); compound 0.1 µM): 88%
- residual activity (TBK1 (human); compound 1.0 µM): 93%
- residual activity (TBK1 (human); compound 10.0 µM): 78%
- residual activity (TAOK1 (human); compound 0.1 µM): 100%
- residual activity (TAOK1 (human); compound 1.0 µM): 108%
- residual activity (TAOK1 (human); compound 10.0 µM): 104%
- residual activity (PAK6 (human); compound 0.1 µM): 103%
- residual activity (PAK6 (human); compound 1.0 µM): 94%
- residual activity (PAK6 (human); compound 10.0 µM): 93%
- residual activity (EPHA2 (human); compound 0.1 µM): 119%
- residual activity (EPHA2 (human); compound 1.0 µM): 114%
- residual activity (EPHA2 (human); compound 10.0 µM): 103%
- residual activity (EPHB3 (human); compound 0.1 µM): 81%
- residual activity (EPHB3 (human); compound 1.0 µM): 99%
- residual activity (EPHB3 (human); compound 10.0 µM): 83%
- residual activity (MAP3K7 TAB1 (human); compound 0.1 µM): 95%
- residual activity (MAP3K7 TAB1 (human); compound 1.0 µM): 94%
- residual activity (MAP3K7 TAB1 (human); compound 10.0 µM): 82%
- residual activity (IKBKB (human); compound 0.1 µM): 98%
- residual activity (IKBKB (human); compound 1.0 µM): 97%
- residual activity (IKBKB (human); compound 10.0 µM): 100%
- residual activity (AURKB (human); compound 0.1 µM): 85%
- residual activity (AURKB (human); compound 1.0 µM): 76%
- residual activity (AURKB (human); compound 10.0 µM): 71%
- residual activity (TTK (human); compound 0.1 µM): 83%
- residual activity (TTK (human); compound 1.0 µM): 84%
- residual activity (TTK (human); compound 10.0 µM): 65%
- residual activity (CDK2 CCNA2 (human); compound 0.1 µM): 83%
- residual activity (CDK2 CCNA2 (human); compound 1.0 µM): 81%
- residual activity (CDK2 CCNA2 (human); compound 10.0 µM): 56%
- residual activity (LCK (mouse); compound 0.1 µM): 102%
- residual activity (LCK (mouse); compound 1.0 µM): 99%
- residual activity (LCK (mouse); compound 10.0 µM): 94%
- residual activity (MAPK8 (human); compound 0.1 µM): 112%
- residual activity (MAPK8 (human); compound 1.0 µM): 105%
- residual activity (MAPK8 (human); compound 10.0 µM): 101%
- residual activity ([2]; compound 0.1 µM): 48%
- residual activity ([2]; compound 1.0 µM): 16%
- residual activity ([2]; compound 10.0 µM): 4%
- residual activity (EPHB2 (human); compound 0.1 µM): 115%
- residual activity (EPHB2 (human); compound 1.0 µM): 91%
- residual activity (EPHB2 (human); compound 10.0 µM): 87%
- residual activity (MAP2K1 (human); compound 0.1 µM): 85%
- residual activity (MAP2K1 (human); compound 1.0 µM): 103%
- residual activity (MAP2K1 (human); compound 10.0 µM): 78%
- residual activity (PKN2 (human); compound 0.1 µM): 31%
- residual activity (PKN2 (human); compound 1.0 µM): 12%
- residual activity (PKN2 (human); compound 10.0 µM): 7%
- residual activity (MAPK10 (human); compound 0.1 µM): 97%
- residual activity (MAPK10 (human); compound 10.0 µM): 95%
- residual activity (EPHA4 (human)): 109%
- residual activity (CSK (human); compound 0.1 µM): 89%
- residual activity (CSK (human); compound 1.0 µM): 95%
- residual activity (CSK (human); compound 10.0 µM): 98%
- residual activity (CaMK1 (human); compound 0.1 µM): 119%
- residual activity (CaMK1 (human); compound 1.0 µM): 109%
- residual activity (CaMK1 (human); compound 10.0 µM): 109%
- residual activity (CHEK1 (human); compound 0.1 µM): 89%
- residual activity (CHEK1 (human); compound 1.0 µM): 88%
- residual activity (CHEK1 (human); compound 10.0 µM): 53%
- residual activity (NUAK1 (human); compound 0.1 µM): 101%
- residual activity (NUAK1 (human); compound 1.0 µM): 91%
- residual activity (NUAK1 (human); compound 10.0 µM): 59%
- residual activity (MYLK (human); compound 0.1 µM): 104%
- residual activity (MYLK (human); compound 1.0 µM): 110%
- residual activity (MYLK (human); compound 10.0 µM): 70%
- residual activity (SRC (human); compound 0.1 µM): 110%
- residual activity (SRC (human); compound 1.0 µM): 120%
- residual activity (SRC (human); compound 10.0 µM): 102%
- residual activity (PAK4 (human); compound 1.0 µM): 96%
- residual activity (PAK4 (human); compound 10.0 µM): 79%
Compound: CCn1c(-c2nonc2N)nc2cncc(CNC3CCNCC3)c21
